Here are results for 2 molecules from patent US10392630B2, “Plants having increased tolerance to herbicides” (BASF AGRO B.V., priority 2013, dated 2019).

The structures appear in SMILES notation. Changes are numbered by the printed parent chain.

What all share (assay): biochemical
Assay [1] addresses T1, Amaranthus mutant PPO (AMARE) (Amaranthus tuberculatus, UniProt Q0NZW9, F420L/R128I).
T1 sequence (Q0NZW9 1-534 R128I/F420L): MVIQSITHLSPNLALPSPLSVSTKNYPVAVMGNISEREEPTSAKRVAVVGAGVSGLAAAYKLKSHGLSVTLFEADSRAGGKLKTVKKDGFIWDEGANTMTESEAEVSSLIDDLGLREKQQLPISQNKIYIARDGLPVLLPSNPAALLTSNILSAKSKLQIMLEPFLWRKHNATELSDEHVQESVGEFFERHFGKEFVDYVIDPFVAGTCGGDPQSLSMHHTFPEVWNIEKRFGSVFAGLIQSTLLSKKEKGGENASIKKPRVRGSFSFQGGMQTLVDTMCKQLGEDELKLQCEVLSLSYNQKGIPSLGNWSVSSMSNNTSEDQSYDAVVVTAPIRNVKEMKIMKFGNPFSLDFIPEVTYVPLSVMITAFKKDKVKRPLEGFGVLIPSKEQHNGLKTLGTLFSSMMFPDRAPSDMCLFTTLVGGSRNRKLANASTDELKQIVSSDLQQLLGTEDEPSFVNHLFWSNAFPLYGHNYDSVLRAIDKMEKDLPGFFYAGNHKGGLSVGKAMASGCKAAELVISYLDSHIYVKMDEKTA

For assay [2], the target named is T2, Amaranthus mutant PPO (AMARE) (Amaranthus tuberculatus, UniProt Q0NZW9, F420I/R128A).
T2 sequence (Q0NZW9 1-534 R128A/F420I): T1 sequence (Q0NZW9 1-534 R128I/F420L) with I128A, L420I

Assay [3] concerns the target T3, Amaranthus mutant PPO (AMARE) (Amaranthus tuberculatus, UniProt Q0NZW9, F420L/R128A).
T3 sequence (Q0NZW9 1-534 R128A/F420L): T1 sequence (Q0NZW9 1-534 R128I/F420L) with I128A

Assay [4] deals with T4, Amaranthus mutant PPO (AMARE) (Amaranthus tuberculatus, UniProt Q0NZW9, F420V/R128L).
T4 sequence (Q0NZW9 1-534 R128L/F420V): T1 sequence (Q0NZW9 1-534 R128I/F420L) with I128L, L420V

Assay [5] addresses T5, Amaranthus mutant PPO (AMARE) (Amaranthus tuberculatus, UniProt Q0NZW9, F420V/R128I).
T5 sequence (Q0NZW9 1-534 R128I/F420V): T1 sequence (Q0NZW9 1-534 R128I/F420L) with L420V

For orientation: IC50 means the midpoint of a concentration-inhibition curve. A lower IC50 goes with greater potency. Consider `C#CCN1C(=O)C(F)(F)Oc2cc(F)c(-n3c(=O)n(C)c(=S)n(C)c3=O)cc21` [BAS 850H], for which the IC50 amounted to 0.466 µM in assay [1]; 0.0246 µM in assay [2]; 0.0162 µM in assay [3]; 1.51 µM in assay [4]; 0.424 µM in assay [5].
Taken in the same sequence, the figures for `CC(C)N(C)S(=O)(=O)NC(=O)c1cc(-n2c(=O)cc(C(F)(F)F)n(C)c2=O)c(F)cc1Cl` [saflufenacil] were above 10 µM, above 10 µM, above 10 µM, above 10 µM and above 10 µM.
